Measurements published in the NIST ThermoML archive (doi:10.1021/je020140j).
± gives the expanded uncertainty stated by the source.

Assay: xn = mol fraction of the nth substance listed
Settings: 101 kPa, Liquid

OCCO [1,2-ethanediol] + O
Settings	mass density [kg/m3]	viscosity [mPa·s]
293.15 K, x1 = 0.0312	1011.7 ± 3.8	1.337 ± 0.024
293.15 K, x1 = 0.0676	1024.6 ± 3.9	1.785 ± 0.031
293.15 K, x1 = 0.1105	1037.2 ± 3.9	2.272 ± 0.039
293.15 K, x1 = 0.162	1051.3 ± 4	2.951 ± 0.05
293.15 K, x1 = 0.2248	1064.8 ± 4.1	3.941 ± 0.065
293.15 K, x1 = 0.3031	1076.7 ± 4.1	5.102 ± 0.083
293.15 K, x1 = 0.4036	1087.8 ± 4.2	6.898 ± 0.1
293.15 K, x1 = 0.537	1097.8 ± 4.2	9.696 ± 0.14
293.15 K, x1 = 0.723	1105.7 ± 4.3	14.04 ± 0.19
293.15 K, x1 = 1	1113.7 ± 4.3	20.83 ± 0.27
303.15 K, x1 = 0.0312	1006.1 ± 4.1	1.047 ± 0.019
303.15 K, x1 = 0.0676	1018.4 ± 4.2	1.331 ± 0.024
303.15 K, x1 = 0.1105	1030 ± 4.3	1.694 ± 0.03
303.15 K, x1 = 0.162	1043.4 ± 4.3	2.2 ± 0.038
303.15 K, x1 = 0.2248	1056.2 ± 4.4	2.832 ± 0.048
303.15 K, x1 = 0.3031	1067.5 ± 4.4	3.728 ± 0.062
303.15 K, x1 = 0.4036	1078 ± 5	4.955 ± 0.081
303.15 K, x1 = 0.537	1087 ± 5	6.749 ± 0.1
303.15 K, x1 = 0.723	–	9.399 ± 0.13
303.15 K, x1 = 1	–	13.65 ± 0.18
313.15 K, x1 = 0.0312	1001.3 ± 4.5	0.835 ± 0.016
313.15 K, x1 = 0.0676	1010.6 ± 4.5	1.022 ± 0.019
313.15 K, x1 = 0.1105	1021.9 ± 4.6	1.319 ± 0.024
313.15 K, x1 = 0.162	1034.7 ± 4.6	1.677 ± 0.029
313.15 K, x1 = 0.2248	1046.8 ± 4.7	2.132 ± 0.037
313.15 K, x1 = 0.3031	1057.9 ± 4.8	2.756 ± 0.047
313.15 K, x1 = 0.4036	1067.9 ± 4.8	3.575 ± 0.059
313.15 K, x1 = 0.537	1077.1 ± 4.9	4.776 ± 0.078
313.15 K, x1 = 0.723	1085.8 ± 4.9	6.449 ± 0.099
313.15 K, x1 = 1	1093.6 ± 4.9	9.443 ± 0.13
323.15 K, x1 = 0.0312	994.9 ± 4.8	0.685 ± 0.014
323.15 K, x1 = 0.0676	1005.1 ± 4.9	0.868 ± 0.016
323.15 K, x1 = 0.1105	1015.1 ± 4.9	1.064 ± 0.02
323.15 K, x1 = 0.162	1027.4 ± 5	1.322 ± 0.024
323.15 K, x1 = 0.2248	1038.6 ± 5	1.657 ± 0.029
323.15 K, x1 = 0.3031	1049.2 ± 5.1	2.113 ± 0.036
323.15 K, x1 = 0.4036	1059 ± 5	2.709 ± 0.046
323.15 K, x1 = 0.537	1068 ± 5	3.593 ± 0.06
323.15 K, x1 = 0.723	1076.7 ± 5.2	4.837 ± 0.079
323.15 K, x1 = 1	1084.7 ± 5.3	6.992 ± 0.11
333.15 K, x1 = 0.0312	989.8 ± 5.2	0.576 ± 0.012
333.15 K, x1 = 0.0676	997.9 ± 5.2	0.713 ± 0.014
333.15 K, x1 = 0.1105	1007.2 ± 5.3	0.875 ± 0.017
333.15 K, x1 = 0.162	1019.2 ± 5.3	1.073 ± 0.02
333.15 K, x1 = 0.2248	1030.3 ± 5.4	1.312 ± 0.024
333.15 K, x1 = 0.3031	1040.6 ± 5.4	1.626 ± 0.029
333.15 K, x1 = 0.4036	1050.3 ± 5.5	2.053 ± 0.035
333.15 K, x1 = 0.537	1059.2 ± 5.5	2.684 ± 0.045
333.15 K, x1 = 0.723	1068 ± 6	3.51 ± 0.058
333.15 K, x1 = 1	1076.4 ± 5.6	5.06 ± 0.082
343.15 K, x1 = 0.0312	983.7 ± 5.5	0.498 ± 0.011
343.15 K, x1 = 0.0676	991.5 ± 5.5	0.597 ± 0.013
343.15 K, x1 = 0.1105	1000.4 ± 5.6	0.728 ± 0.014
343.15 K, x1 = 0.162	1011.5 ± 5.6	0.881 ± 0.017
343.15 K, x1 = 0.2248	1022.3 ± 5.7	1.071 ± 0.02
343.15 K, x1 = 0.3031	1031.9 ± 5.7	1.32 ± 0.024
343.15 K, x1 = 0.4036	1041.3 ± 5.8	1.648 ± 0.029
343.15 K, x1 = 0.537	1050.1 ± 5.8	2.136 ± 0.037
343.15 K, x1 = 0.723	1058.8 ± 5.9	2.817 ± 0.048
343.15 K, x1 = 1	1067.5 ± 5.9	3.987 ± 0.066
353.15 K, x1 = 0.0312	977.1 ± 5.8	0.434 ± 0.01
353.15 K, x1 = 0.0676	984.7 ± 5.9	0.525 ± 0.012
353.15 K, x1 = 0.1105	993.6 ± 5.9	0.629 ± 0.013
353.15 K, x1 = 0.162	1003.8 ± 6	0.758 ± 0.015
353.15 K, x1 = 0.2248	1014 ± 6	0.906 ± 0.017
353.15 K, x1 = 0.3031	1023.7 ± 6.1	1.1 ± 0.02
353.15 K, x1 = 0.4036	1033 ± 6	1.359 ± 0.024
353.15 K, x1 = 0.537	1042 ± 6	1.748 ± 0.031
353.15 K, x1 = 0.723	1050.9 ± 6.2	2.296 ± 0.039
353.15 K, x1 = 1	1060 ± 6.3	3.021 ± 0.051
